Drawing on patent US6376551B1, “Treatment of chronic fatigue syndrome” (Knoll Pharmaceutical Company, priority 1999, dated 2002), this text covers Ki for 2 molecules.

Assay [1] has as its target [3H]Noradenaline reuptake in rat brain tissue. The experiment in a line: in vitro [3H]noradrenaline reuptake inhibition in rat brain tissue. To be noted: means of >3 separate determinations. The class given is biochemical.
For assay [2], the target named is [3H]Dopamine reuptake in rat brain tissue. As to the kind of experiment: in vitro [3H]dopamine reuptake inhibition in rat brain tissue. The class given is biochemical. To be noted: means of >3 separate determinations.

Structures are written as SMILES.

`CC(NC(C)(C)C)C(=O)c1cccc(Cl)c1` (stereo not shown) [Bupropion]: the Ki in assay [1] is 2590 nM; in assay [2], 409 nM.

On to `COc1ccc(C(CN(C)C)C2(O)CCCCC2)cc1` (stereo not shown) [Venlafaxine], for which the figures for the Ki in assay [1] and in assay [2] were 196 nM and 2590 nM, respectively.

Usually Ki stands for a measure of affinity in units of concentration, obtained from inhibition or displacement. Higher therefore signals a looser hold on the target.
